From the Kinase Knowledgebase extract (Sharma et al. 2016)
pIC50: −log10 of the molar value.

What was measured:
[1] = biological target: PIK3CA (human) (UniProt P42336); assay: Assessment of PIK3CA Kinase Activity Using One Step Solid Phase Assay
[2] = biological target: PIK3CA (human) (UniProt P42336); assay: Assessment of PIK3CA Kinase Activity Using Homogenous Solution Phase Assay

Chain of PIK3CA (human) (P42336 whole entry, looked up): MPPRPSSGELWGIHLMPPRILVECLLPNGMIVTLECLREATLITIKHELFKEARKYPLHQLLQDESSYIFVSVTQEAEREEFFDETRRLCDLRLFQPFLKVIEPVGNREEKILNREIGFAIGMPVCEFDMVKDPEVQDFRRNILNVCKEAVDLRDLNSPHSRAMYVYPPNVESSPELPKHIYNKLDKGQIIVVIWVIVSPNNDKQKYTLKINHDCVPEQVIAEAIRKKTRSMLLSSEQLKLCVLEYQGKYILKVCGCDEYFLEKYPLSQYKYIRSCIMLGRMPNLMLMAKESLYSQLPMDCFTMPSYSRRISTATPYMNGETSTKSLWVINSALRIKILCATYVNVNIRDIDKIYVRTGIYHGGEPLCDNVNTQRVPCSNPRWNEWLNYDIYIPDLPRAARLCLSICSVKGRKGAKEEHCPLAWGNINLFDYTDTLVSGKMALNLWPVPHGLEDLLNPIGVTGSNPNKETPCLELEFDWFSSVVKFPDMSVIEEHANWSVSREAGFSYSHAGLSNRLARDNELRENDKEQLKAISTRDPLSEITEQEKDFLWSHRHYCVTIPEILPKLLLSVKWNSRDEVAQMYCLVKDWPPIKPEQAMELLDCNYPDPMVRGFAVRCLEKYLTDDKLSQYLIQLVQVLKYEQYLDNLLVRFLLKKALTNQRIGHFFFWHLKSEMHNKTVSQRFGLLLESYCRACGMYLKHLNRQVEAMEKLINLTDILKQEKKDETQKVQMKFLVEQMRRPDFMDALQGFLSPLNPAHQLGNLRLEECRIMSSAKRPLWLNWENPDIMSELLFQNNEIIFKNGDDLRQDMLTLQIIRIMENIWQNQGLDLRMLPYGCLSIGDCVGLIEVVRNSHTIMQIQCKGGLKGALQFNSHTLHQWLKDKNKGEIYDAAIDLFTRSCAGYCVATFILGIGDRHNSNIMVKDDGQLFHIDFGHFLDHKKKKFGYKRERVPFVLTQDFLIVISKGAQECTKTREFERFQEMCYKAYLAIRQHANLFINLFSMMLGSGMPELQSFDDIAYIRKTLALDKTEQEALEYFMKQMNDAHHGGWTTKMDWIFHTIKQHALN

pIC50 [1]	pIC50 [2]	SMILES
> 4.70	> 4.70	Oc1cccc(-c2cc(NCc3ccncc3)nc(N3CCOCC3)n2)c1
–	> 4.70	Oc1cccc(-c2cc(Nc3ccc4c(c3)OCCO4)nc(N3CCOCC3)n2)c1
> 4.70	–	COc1cccc(C)c1Nc1cc(-c2cccc(O)c2)nc(N2CCOCC2)n1
–	> 4.70	COc1cccc(-c2cc(Nc3cccnc3)nc(N3CCOCC3)n2)c1
> 4.70	> 4.70	CCCC(=O)Oc1cccc(-c2cc(Nc3cccnc3)nc(N3CCOCC3)n2)c1
> 4.70	–	N[C@@H]1CCCC[C@H]1Nc1cc(-c2cccc(O)c2)nc(N2CCOCC2)n1
–	> 4.70	Oc1cccc(-c2cc(Nc3ccc4cn[nH]c4c3)nc(N3CCOCC3)n2)c1
> 4.70	> 4.70	Oc1cccc(-c2cc(N3CCCNCC3)nc(N3CCOCC3)n2)c1
> 4.70	–	Oc1cccc(-c2cc(NCCc3ccccn3)nc(N3CCOCC3)n2)c1
> 4.70	–	Oc1cccc(-c2cc(NCCCn3ccnc3)nc(N3CCOCC3)n2)c1
> 4.70	> 4.70	COc1cccc(N2CCN(c3cc(-c4cccc(O)c4)nc(N4CCOCC4)n3)CC2)c1
> 4.70	> 4.70	O=[N+]([O-])c1ccc(N2CCN(c3cc(-c4cccc(O)c4)nc(N4CCOCC4)n3)CC2)cc1
> 4.70	> 4.70	CCOc1ccc(NC(C)=O)cc1Nc1cc(-c2cccc(O)c2)nc(N2CCOCC2)n1
> 4.70	–	COc1ccc(OC)c(Nc2cc(-c3cccc(O)c3)nc(N3CCOCC3)n2)c1
> 4.70	–	COc1c(Nc2cc(-c3cccc(O)c3)nc(N3CCOCC3)n2)ccc2c1oc1ccccc12
> 4.70	–	Oc1cccc(-c2cc(NCCc3cccnc3)nc(N3CCOCC3)n2)c1
> 4.70	–	CCOc1ccc(Nc2cc(-c3cccc(O)c3)nc(N3CCOCC3)n2)cc1

pIC50 [1]	pIC50 [2]	SMILES
–	> 4.70	Oc1cccc(-c2cc(Nc3ccc(O)c(Cl)c3)nc(N3CCOCC3)n2)c1
> 4.70	–	Oc1ccc(Nc2cc(-c3cccc(O)c3)nc(N3CCOCC3)n2)cc1
–	> 4.70	COc1ccc(Nc2cc(-c3cccc(O)c3)nc(N3CCOCC3)n2)cc1F
> 4.70	> 4.70	Oc1cccc(-c2cc(Nc3cccnc3)nc(N3CCOCC3)n2)c1F
> 4.70	–	COc1cc(Nc2ccccc2)ccc1Nc1cc(-c2cccc(O)c2)nc(N2CCOCC2)n1
> 4.70	–	Oc1cccc(-c2cc(N(Cc3ccccc3)Cc3ccccc3)nc(N3CCOCC3)n2)c1
> 4.70	> 4.70	COC(=O)Oc1cccc(-c2cc(Nc3cccnc3)nc(N3CCOCC3)n2)c1
> 4.70	–	Oc1cccc(-c2cc(N3CCC(O)CC3)nc(N3CCOCC3)n2)c1
> 4.70	–	COc1cccc(Nc2cc(-c3cccc(O)c3)nc(N3CCOCC3)n2)c1OC
–	> 4.70	Oc1cccc(-c2cc(Nc3ccc4[nH]ncc4c3)nc(N3CCCCCC3)n2)c1
> 4.70	> 4.70	Oc1cccc(-c2cc(N3CCN(c4ccccn4)CC3)nc(N3CCOCC3)n2)c1
> 4.70	> 4.70	CC(=O)Oc1cccc(-c2cc(Nc3cccnc3)nc(N3CCOCC3)n2)c1
> 4.70	–	Oc1cccc(-c2cc(N3CCN(Cc4ccc5c(c4)OCO5)CC3)nc(N3CCOCC3)n2)c1
–	> 4.70	Oc1cccc(-c2cc(Nc3ccc4nc[nH]c4c3)nc(N3CCOCC3)n2)c1
> 4.70	–	COc1ccc(Nc2cc(-c3cccc(O)c3)nc(N3CCOCC3)n2)c(OC)c1
–	> 4.70	O=c1[nH]c2ccc(Nc3cc(-c4cccc(O)c4)nc(N4CCOCC4)n3)cc2[nH]1
–	> 4.70	Oc1cccc(-c2cc(Nc3ccc4c(c3)Cc3ccccc3-4)nc(N3CCOCC3)n2)c1

More lines, now with the values behind:

SMILES	pIC50 [1]	pIC50 [2]
CCOc1ccc(OCC)c(Nc2cc(-c3cccc(O)c3)nc(N3CCOCC3)n2)c1	> 4.70	–
Nc1cccc(-c2cc(Nc3cccnc3)nc(N3CCOCC3)n2)c1	> 4.70	> 4.70
Oc1cccc(-c2cc(Nc3ccc4ncccc4c3)nc(N3CCOCC3)n2)c1	–	> 4.70
Oc1cccc(-c2cc(N3CCN(CCc4ccccc4)CC3)nc(N3CCOCC3)n2)c1	> 4.70	–
Oc1cc(-c2cc(Nc3cccnc3)nc(N3CCOCC3)n2)ccc1Cl	> 4.70	> 4.70
COc1ccc(Nc2cc(-c3cccc(O)c3)nc(N3CCOCC3)n2)cc1Cl	–	> 4.70
Oc1cccc(-c2cc(Nc3cccc(OCc4ccccc4)c3)nc(N3CCOCC3)n2)c1	> 4.70	–
COc1cccc(-c2nc(N3CCOCC3)nc(Nc3cccnc3)c2C(=O)O)c1	> 4.70	–
C[C@@H](Nc1cc(-c2cccc(O)c2)nc(N2CCOCC2)n1)c1ccccc1	> 4.70	> 4.70
Oc1cccc(-c2cc(Nc3cc(Cl)ccc3O)nc(N3CCOCC3)n2)c1	> 4.70	–
CCOc1ccccc1Nc1cc(-c2cccc(O)c2)nc(N2CCOCC2)n1	> 4.70	–
COc1ccc(Nc2cc(-c3cccc(O)c3)nc(N3CCOCC3)n2)cc1OC	–	> 4.70
OCC1CCCN1c1cc(-c2cccc(O)c2)nc(N2CCOCC2)n1 (stereo unspecified)	–	> 4.70
COc1cc(Nc2cc(-c3cccc(O)c3)nc(N3CCOCC3)n2)cc(OC)c1OC	–	> 4.70
CC(C)C(=O)Oc1cccc(-c2cc(Nc3cccnc3)nc(N3CCOCC3)n2)c1	> 4.70	> 4.70
Oc1cccc(-c2cc(N3CCN(c4cccc(Cl)c4)CC3)nc(N3CCOCC3)n2)c1	> 4.70	–
Cc1ccc(O)cc1-c1cc(Nc2cccnc2)nc(N2CCOCC2)n1	–	> 4.70
Oc1cccc(-c2cc(Nc3ccc4[nH]ncc4c3)nc(N3CCCNCC3)n2)c1	–	> 4.70
Oc1cccc(-c2cc(Nc3ccc4nn[nH]c4c3)nc(N3CCOCC3)n2)c1	> 4.70	> 4.70
Oc1ccc(F)c(-c2cc(Nc3cccnc3)nc(N3CCOCC3)n2)c1	> 4.70	> 4.70
Oc1cccc(-c2cc(Nc3ccc4c(c3)NCC4)nc(N3CCOCC3)n2)c1	–	> 4.70
Oc1ccc(Br)c(-c2cc(Nc3cccnc3)nc(N3CCOCC3)n2)c1	> 4.70	> 4.70

SMILES	pIC50 [1]	pIC50 [2]
Cc1ccc(-c2cc(Nc3cccnc3)nc(N3CCOCC3)n2)cc1O	> 4.70	> 4.70
COc1ccc(Nc2cc(-c3ccccc3)nc(N3CCOCC3)n2)cc1O	> 4.70	–
CCCCOc1ccc(Nc2cc(-c3cccc(O)c3)nc(N3CCOCC3)n2)cc1	> 4.70	–
Nc1cc(-c2cccc(O)c2)nc(N2CCOCC2)n1	–	> 4.70
CC(=O)N1CCc2ccc(Nc3cc(-c4cccc(O)c4)nc(N4CCOCC4)n3)cc21	–	> 4.70
Oc1cccc(-c2cc(Nc3ccc4c(c3)OCO4)nc(N3CCOCC3)n2)c1	–	> 4.70
Oc1cccc(Nc2cc(-c3cccc(O)c3)nc(N3CCOCC3)n2)c1	> 4.70	–
COCCNc1cc(-c2cccc(O)c2)nc(N2CCOCC2)n1	> 4.70	> 4.70
NC1CCCC(Nc2cc(-c3cccc(O)c3)nc(N3CCOCC3)n2)C1 (stereo unspecified)	> 4.70	–
CS(=O)(=O)Nc1cccc(-c2cc(Nc3cccnc3)nc(N3CCOCC3)n2)c1	> 4.70	> 4.70
Cc1ccc(Nc2cc(-c3cccc(O)c3)nc(N3CCOCC3)n2)cc1C	–	> 4.70
COc1ccc(Nc2cc(-c3cccc(O)c3)nc(N3CCOCC3)n2)cc1O	–	> 4.70
COc1cccc(Nc2cc(-c3cccc(O)c3)nc(N3CCOCC3)n2)c1	> 4.70	–
COc1ccc(Nc2cc(-c3cccc(O)c3)nc(N3CCOCC3)n2)cc1OC1CCCC1	> 4.70	–
CCn1c(C)nc2cc(Nc3cc(-c4cccc(O)c4)nc(N4CCOCC4)n3)ccc21	> 4.70	–
Oc1cccc(-c2cc(Nc3cc(-c4ccccc4)ccc3O)nc(N3CCOCC3)n2)c1	> 4.70	–
CN1CCCN(c2cc(-c3cccc(O)c3)nc(N3CCOCC3)n2)CC1	> 4.70	–
Oc1cccc(-c2cc(Nc3cnccn3)nc(N3CCOCC3)n2)c1	–	> 4.70
Oc1cccc(-c2cc(Nc3ccccn3)nc(N3CCOCC3)n2)c1	–	> 4.70
FC(F)(F)c1cccc(-c2cc(Nc3cccnc3)nc(N3CCOCC3)n2)c1	–	> 4.70
Oc1cccc(-c2cc(Nc3ccc(Oc4ccccc4)cc3)nc(N3CCOCC3)n2)c1	> 4.70	–
Oc1cccc(-c2cc(NCCc3ccncc3)nc(N3CCOCC3)n2)c1	> 4.70	> 4.70

SMILES	pIC50 [1]	pIC50 [2]
Oc1cccc(-c2cc(Nc3cccc4cnccc34)nc(N3CCOCC3)n2)c1	–	> 4.70
Cc1ccc(CN(Cc2cccnc2)c2cc(-c3cccc(O)c3)nc(N3CCOCC3)n2)cc1	> 4.70	–
COc1cccc(-c2cc(N3CCOCC3)nc(N3CCOCC3)n2)c1	> 4.70	> 4.70
C[C@@H]1COC[C@H](C)N1c1cc(-c2cccc(O)c2)nc(N2CCOCC2)n1	> 4.70	> 4.70
Oc1cccc(-c2cc(Nc3ccc4c(c3)OCCCO4)nc(N3CCOCC3)n2)c1	> 4.70	–
CCC(CO)(CO)Nc1cc(-c2cccc(O)c2)nc(N2CCOCC2)n1	> 4.70	> 4.70
CC(C)C(N)C(=O)Oc1cccc(-c2cc(Nc3cccnc3)nc(N3CCOCC3)n2)c1 (stereo unspecified)	> 4.70	> 4.70
Oc1cccc(-c2cc(NCc3ccccn3)nc(N3CCOCC3)n2)c1	> 4.70	> 4.70
CC(C)(C)C(=O)Oc1cccc(-c2cc(Nc3cccnc3)nc(N3CCOCC3)n2)c1	> 4.70	> 4.70
Oc1cccc(-c2cc(N(Cc3ccccc3)Cc3nccs3)nc(N3CCOCC3)n2)c1	–	> 4.70
O=[N+]([O-])c1cc(Nc2cc(-c3cccc(O)c3)nc(N3CCOCC3)n2)ccc1O	–	> 4.70
O=C(CN1CCN(c2cc(-c3cccc(O)c3)nc(N3CCOCC3)n2)CC1)N1CCOCC1	> 4.70	–
Oc1cccc(-c2cc(Nc3cccc(Oc4ccccc4)c3)nc(N3CCOCC3)n2)c1	> 4.70	–
Fc1cccc(-c2cc(Nc3cccnc3)nc(N3CCOCC3)n2)c1	–	> 4.70
Oc1cccc(-c2cc(Nc3ncccn3)nc(N3CCOCC3)n2)c1	> 4.70	> 4.70
COc1ccccc1Nc1cc(-c2cccc(O)c2)nc(N2CCOCC2)n1	> 4.70	–
Fc1ccccc1-c1cc(Nc2ccc3[nH]ncc3c2)nc(N2CCOCC2)n1	> 4.70	–
Oc1cccc(-c2cc(Nc3ccc4c(c3)CCC4)nc(N3CCOCC3)n2)c1	–	> 4.70
Cc1ccc(CN(Cc2ccccn2)c2cc(-c3cccc(O)c3)nc(N3CCOCC3)n2)cc1	> 4.70	–
Oc1cccc(-c2cc(Nc3ccccc3O)nc(N3CCOCC3)n2)c1	> 4.70	–
